Reference: article PMC5778891 (Nature, 2017)
Numbering of substitutions follows the chain as printed.

Assays:
K2P4.1(TRAAK) = biological target: T1, K2P4.1(TRAAK) (Homo sapiens, UniProt Q9NYG8); assay: Two electrode voltage clamp in Xenopus oocytes, K2P4.1; type: cell-based
T1 sequence (Q9NYG8 1-419 isoform Q9NYG8-2): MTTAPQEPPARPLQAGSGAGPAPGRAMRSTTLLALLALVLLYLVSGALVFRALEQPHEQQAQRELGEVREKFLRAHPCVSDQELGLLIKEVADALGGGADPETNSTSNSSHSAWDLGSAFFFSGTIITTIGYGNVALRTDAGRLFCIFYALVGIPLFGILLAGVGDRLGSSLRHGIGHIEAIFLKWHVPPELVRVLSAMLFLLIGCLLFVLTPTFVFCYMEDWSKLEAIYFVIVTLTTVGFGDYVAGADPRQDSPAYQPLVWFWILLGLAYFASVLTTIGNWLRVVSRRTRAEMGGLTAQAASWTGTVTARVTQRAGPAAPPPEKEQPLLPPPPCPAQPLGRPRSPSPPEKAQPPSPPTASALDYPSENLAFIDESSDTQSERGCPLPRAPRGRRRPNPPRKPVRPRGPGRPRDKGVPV

K2P2.1(TREK-1) [1] = biological target: T2, K2P2.1(TREK-1) (Mus musculus, UniProt P97438); assay: HEK293 inside-out patches, 150 mM K+[out]/150 mM Rb+[in], rectification; type: cell-based; settings: 5 μM compound
T2 sequence (P97438 1-411 isoform P97438-2): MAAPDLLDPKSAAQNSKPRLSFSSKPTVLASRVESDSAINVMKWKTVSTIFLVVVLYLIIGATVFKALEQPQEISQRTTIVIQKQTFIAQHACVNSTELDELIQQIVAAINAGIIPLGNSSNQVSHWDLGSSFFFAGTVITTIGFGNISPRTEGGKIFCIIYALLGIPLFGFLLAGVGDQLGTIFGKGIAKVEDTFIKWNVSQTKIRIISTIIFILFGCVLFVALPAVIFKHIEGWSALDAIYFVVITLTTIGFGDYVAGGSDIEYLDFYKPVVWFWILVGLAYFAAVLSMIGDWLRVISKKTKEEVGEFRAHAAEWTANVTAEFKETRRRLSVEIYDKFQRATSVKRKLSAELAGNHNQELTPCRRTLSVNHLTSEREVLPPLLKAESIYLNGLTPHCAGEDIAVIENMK

K2P2.1(TREK-1) [2] = biological target: T2, K2P2.1(TREK-1); assay: cell-based
K2P2.1(TREK-1) [3] = biological target: T2, K2P2.1(TREK-1); assay: Two electrode voltage clamp in Xenopus oocytes, K2P2.1; type: cell-based
K2P10.1(TREK-2) = biological target: T3, K2P10.1(TREK-2) (Homo sapiens, UniProt P57789); assay: Two electrode voltage clamp in Xenopus oocytes, K2P10.1; type: cell-based
T3 sequence (P57789 1-543 isoform P57789-3): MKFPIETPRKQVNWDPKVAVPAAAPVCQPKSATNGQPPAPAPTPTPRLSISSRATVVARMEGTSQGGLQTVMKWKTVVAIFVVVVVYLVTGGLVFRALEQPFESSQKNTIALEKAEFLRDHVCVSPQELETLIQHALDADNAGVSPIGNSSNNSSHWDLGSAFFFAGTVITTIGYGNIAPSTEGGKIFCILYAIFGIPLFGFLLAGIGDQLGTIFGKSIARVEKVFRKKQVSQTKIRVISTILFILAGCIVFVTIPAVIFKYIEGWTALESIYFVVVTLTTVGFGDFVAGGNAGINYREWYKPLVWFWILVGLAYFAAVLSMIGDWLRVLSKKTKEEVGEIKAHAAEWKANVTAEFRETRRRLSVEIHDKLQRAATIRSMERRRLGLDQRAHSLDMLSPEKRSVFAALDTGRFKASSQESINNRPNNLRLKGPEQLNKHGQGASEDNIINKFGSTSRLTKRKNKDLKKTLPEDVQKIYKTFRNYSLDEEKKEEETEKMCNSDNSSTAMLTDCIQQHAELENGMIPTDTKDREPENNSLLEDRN

K2P4.1(TRAAK) Q258K = biological target: T4, K2P4.1(TRAAK) Q258K (Homo sapiens, UniProt Q9NYG8, Q232K); assay: Two electrode voltage clamp in Xenopus oocytes, K2P4.1; type: cell-based; settings: for effect of activator (current potentiation at 0 mV) compared with wild type: Xenopus oocytes, K2P4.1(TRAAK) Q258K, 10 μM BL-1249, 30 μM ML67-33
T4 sequence (Q9NYG8 1-419 isoform Q9NYG8-2 Q258K): T1 sequence (Q9NYG8 1-419 isoform Q9NYG8-2) with Q258K

K2P2.1(TREK-1) K271Q [4] = biological target: T5, K2P2.1(TREK-1) K271Q (Mus musculus, UniProt P97438, K286Q); assay: Two electrode voltage clamp in Xenopus oocytes, K2P2.1; type: cell-based; settings: for effect of activator (current potentiation at 0 mV) compared with wild type: 10 μM BL-1249, 30 μM ML67-33
T5 sequence (P97438 1-411 isoform P97438-2 K271Q): T2 sequence (P97438 1-411 isoform P97438-2) with K271Q

[5] = Solubility in aqueous solutions; type: physicochemical
K2P2.1(TREK-1)cryst = K2P2.1(TREK-1)cryst (Mus musculus, UniProt P97438, A104R/A107P/E321A/I103L/K99R/N110S/N134A/Q100E/Q105A/S111D/S315A/T101K/T112Q); assay: cell-based
K2P2.1(TREK-1) K271Q [6] = biological target: T5, K2P2.1(TREK-1) K271Q; assay: HEK cell patch clamp response to arachidonic acid, K2P2.1; type: cell-based; settings: HEK cells, 10 μM AA

K2P2.1(TREK-1)cryst, sequence (P97438 36-337 K99R/Q100E/T101K/I103L/A104R/Q105A/A107P/N110S/S111D/T112Q/N134A/S315A/E321A): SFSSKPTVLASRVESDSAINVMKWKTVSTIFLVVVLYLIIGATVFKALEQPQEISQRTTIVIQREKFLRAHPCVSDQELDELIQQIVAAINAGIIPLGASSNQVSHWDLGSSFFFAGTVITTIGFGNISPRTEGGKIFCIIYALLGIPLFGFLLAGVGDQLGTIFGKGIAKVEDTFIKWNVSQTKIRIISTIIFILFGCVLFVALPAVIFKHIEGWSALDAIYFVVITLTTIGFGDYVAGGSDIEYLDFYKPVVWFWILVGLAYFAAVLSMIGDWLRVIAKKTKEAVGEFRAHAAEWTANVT

effect of activator (current potentiation at 0 mV) compared with wild type (K2P4.1(TRAAK) Q258K) | effect of activator (current potentiation at 0 mV) compared with wild type (K2P2.1(TREK-1) K271Q [4]) | SMILES | activation of channel (K2P4.1(TRAAK)) | rectification coefficient (I+100mV/I-100mV) (K2P2.1(TREK-1) [1]) | EC50 (K2P2.1(TREK-1) [2]) | EC50 (K2P2.1(TREK-1) [3]) | EC50 (K2P10.1(TREK-2)) | EC50 (K2P4.1(TRAAK) Q258K) | sensitivity to activator (K2P2.1(TREK-1) K271Q [4]) | solubility in aqueous solutions [5] | EC50 (K2P2.1(TREK-1)cryst) | further results
unchanged | unchanged | CC1(C)c2cc(Cl)ccc2N(CCc2nn[nH]n2)c2ccc(Cl)cc21 [ML67-33, reference compound] |  |  |  |  |  |  |  |  |  | 
unchanged | unchanged | c1ccc(-c2nnn[nH]2)c(Nc2cccc3c2CCCC3)c1 [BL-1249, (5,6,7,8-tetrahydro-naphthalen-1-yl)-[2-(1H-tetrazol-5-yl)-phenyl]-amine, reference compound] |  |  |  |  |  |  |  |  |  | 

Further lines, the compound ahead of its results:

SMILES | effect of activator (current potentiation at 0 mV) compared with wild type (K2P4.1(TRAAK) Q258K) | effect of activator (current potentiation at 0 mV) compared with wild type (K2P2.1(TREK-1) K271Q [4]) | activation of channel (K2P4.1(TRAAK)) | rectification coefficient (I+100mV/I-100mV) (K2P2.1(TREK-1) [1]) | EC50 (K2P2.1(TREK-1) [2]) | EC50 (K2P2.1(TREK-1) [3]) | EC50 (K2P10.1(TREK-2)) | EC50 (K2P4.1(TRAAK) Q258K) | sensitivity to activator (K2P2.1(TREK-1) K271Q [4]) | solubility in aqueous solutions [5] | EC50 (K2P2.1(TREK-1)cryst) | further results
Cc1cc(Cl)ccc1OCCNC(=O)c1cccs1 [ML402, N-[2-(4-chloro-2-methylphenoxy)ethyl]thiophene-2-carboxamide] |  |  | not | ~ 1 | 5.9 ± 1.6 µM | 13.7 ± 7 µM | 5.9 ± 1.6 µM | 13.6 ± 1.5 µM | insensitive | insoluble | 14.9 ± 1.6 µM | 
CS(=O)(=O)Nc1ccc(C(=O)NCc2ccc(Cl)cc2Cl)cc1 [ML335, N-[(2,4-dichlorophenyl)methyl]-4-methanesulfonamidobenzamide] |  |  | not | ~ 1 | 5.2 ± 0.8 µM | 14.3 ± 2.7 µM | 5.2 ± 0.5 µM | 16.2 ± 3 µM | insensitive | insoluble | 10.5 ± 2.7 µM | 
CCCCC/C=C\C/C=C\C/C=C\C/C=C\CCCC(=O)O [arachidonic acid] |  |  |  |  |  |  |  |  |  |  |  | effect of activator (current potentiation at 0 mV) compared with wild type (K2P2.1(TREK-1) K271Q [6]): unchanged
C=CS(=O)(=O)N[C@H]1CC[C@H](C(=O)NCc2ccc(Cl)cc2Cl)CC1 [ML335a, trans-N-[(2,4-dichlorophenyl)methyl]-4-ethenesulfonamidocyclohexane-1-carboxamide] |  |  |  |  |  |  |  |  |  |  |  | effect on channel (K2P2.1(TREK-1) [3]; Xenopus oocytes, dose response, K2P2.1(TREK-1)): no effect
